Tests used:
[1] = test system: red-winged blackbirds; test: Threshold AQ concentration previously established for red-winged blackbirds (Werner et al. 2009); format: in vivo, red-winged blackbirds (Agelaius phoeniceus); settings: 80% repellency, anthraquinone only, interpolated between the 70% and 100% values
Description: The concentration response of AQ plus TiO2 feeding cue was tested. This experiment was designed to establish a concentration response relationship of AQ plus 0.2% TiO2 treated sunflower seeds for blackbirds in captivity. The experiment was also designed to establish a threshold concentration of AQ necessary for blackbird feeding repellency when reduced by varying the concentration of AQ based repellent combined with a TiO2 feeding cue. This optimized AQ concentration was expected to be less than the threshold AQ concentration previously established for red-winged blackbirds done by Werner et al. (2009) and shown in column 2 of Table 1. Daily sunflower consumption was measured throughout the pretreatment and test phases of the experiment as previously described. Greater than 80% repellency during a captive feeding trial is the operational level for an effective repellent as has been documented in the field using AQ repellents, see Werner et al. (2009) and (2011).

[2] = test system: red-winged blackbirds; settings: anthraquinone only, cited from earlier work
[3] = test system: birds; settings: '678 patent; cited from earlier work

What does the source list for `O=C1c2ccccc2C(=O)c2ccccc21` [Anthraquinone Only, 9,10-anthraquinone]?
[AQ] ppm by weight for RWBL Repellency 80% (expected AQ concentration) [1]: 1737 ((1846 − ppm by weight; [AQ] ppm by weight for RWBL Repellency 80% (expected AQ concentration) ([1]; listed as AQ): 1737 ppm by weight; [AQ] ppm by weight for RWBL Repellency 80% (expected AQ concentration) ([1]; listed as straight AQ): 1737 ppm by weight; [AQ] ppm by weight for RWBL Repellency 20% ([2]; 20% repellency): 193 (222*20/23) ppm by weight; [AQ] ppm by weight for RWBL Repellency 35% ([2]; 35% repellency): 572 (556*34/35) ppm by weight; [AQ] ppm by weight for RWBL Repellency 50% ([2]; 50% repellency): 538 (560*50/52) ppm by weight; [AQ] ppm by weight for RWBL Repellency 70% ([2]; 70% repellency): 1682 (1778*74/70) ppm by weight; [AQ] ppm by weight for RWBL Repellency 100% ([2]; 100% repellency): 1846 (1994*100/108) ppm by weight; AQ concentration to achieve 74% repellency [3]: 1778 ppm

Source: patent US20160157477A1, “USE OF VISUAL CUES TO ENHANCE BIRD REPELLENT COMPOSITIONS” (ARKION LIFE SCIENCES, LLC, priority 2014, published 2016)
